Assays:
KL LJE1 cells = assay: qRT-PCR of chemokine (HRCG) gene expression in KL LJE1 cells; assay type: cell-based, mouse
Description: (§1) All cell lines were incubated at 37° C. and were maintained in an atmosphere containing 5% CO2. Cells were tested for Mycoplasma (Lonza) using manufacturer's conditions and were deemed negative. Cells were grown in Dulbecco's modified Eagles medium (DMEM) plus 10% fetal bovine serum (Gibco) and were continuously maintained under antibiotic selection for stable cell lines. Proliferation assays were performed by plating 2×10^3 cells per well of a 6-well plate, and cells were counted 5 days post-plating. Drug treatments were carried out using the following doses: entinostat 1 uM or 2 uM, RGFP966 10uM, TSA 0.5 uM, BRD3308 5 uM, trametinib 5 nM, 10 nM, and 25 nM, and MRTX1133 10 nM, 25 nM, and 50 nM, as indicated for the indicated treatment lengths. Media was changed and fresh drug added every 2 days.
(§2) mRNA was prepared using the Quick-RNA Miniprep kit (Zymo Research), including DNase treatment. cDNA was synthesized from 2 μg of RNA using SuperScript III (Life Technologies), and qPCR was carried out with diluted cDNA, appropriate primers, and SYBR Green PCR master mix (ThermoFisher Scientific) using a C1000 Thermal Cycler (BioRad). Relative mRNA levels were calculated using the delta Ct method, using Tbp as an internal control.

[1] = test system: human LKB1 mutant lung cancer cells; assay: FGFR1 resistance mechanism in human LKB1 mutant lung cancer cells; assay type: cell-based; details: 9 days of trametinib treatment, entinostat treatment days 3-9 (6 days total)
H460 cells = assay: qRT-PCR of chemokine gene expression in H460 cells; assay type: cell-based, human; details: 1 uM entinostat 4 days, 5 uM BRD3308 4 days
Description: as §1, §2

[2] = test system: human KRAS, LKB1 mutant lung cancer cells; assay: FGFR1 resistance mechanism in human KRAS, LKB1 mutant lung cancer cells; assay type: cell-based; details: 9 days of trametinib treatment, entinostat treatment days 3-9 (6 days total)
KL NSCLC GEMM = assay: Short-term (5 day) in vivo entinostat treatment, qRT-PCR on lung tumors and liver; set-up: species or system mouse; details: 10 mg/kg/day entinostat, oral gavage, 5 days
Description: KL mice were intratracheally intubated with lentivirus expressing Cre recombinase to initiate tumorigenesis and imaged biweekly by BLI starting 4 weeks after Cre administration. When tumor burden in all mice was greater than 5×107 photons/see as determined by BLI, treatment was initiated. Mice were randomized and treated daily by oral gavage for 5 days with vehicle or 10 mg/kg entinostat. In vivo treatment doses were selected based on publications (39, 69-71). Entinostat was diluted to 1 mg/mL in vehicle (0.5% Methyl cellulose in water), vortexed, sonicated 10 minutes, and administered at 10 mg/kg. Drug and vehicle was administered starting at ˜9am daily throughout the duration of treatment. The experiment was terminated after 5 days of treatment, at which time primary lung tumors and liver were isolated by dissection and immediately flash frozen.
as §2
Next, pharmacological inhibition of HDAC3 was assessed for impacting HRCG expression in vivo as observed in cell culture experiments (FIG. 12B, 18D-G). Lung tumorigenesis was initiated in KL GEMM mice, and disease growth was monitored over time using bioluminescence imaging (BLI) potentiated by the Rosa26^LSL-luferase genetic allele. When tumor burden was established in all mice (BLI >5×10^7 photons/sec), mice were randomized and treatment was initiated. Mice were treated daily for 5 days with vehicle or 10 mg/kg/day entinostat administered by oral gavage, after which lung tumors and liver were collected (FIG. 14C). Using qRT-PCR, gene expression of HDAC3 target genes in lung tumors and liver was assessed. […] To confirm that entinostat treatment was engaging on-target effects in the liver samples, the gene expression of canonical HDAC3 liver target genes Nr1d1 and Arntl was assessed (FIG. 14E).

NF-kB/p65 protein = assay: Western blot of p65 nuclear localisation and K310 acetylation in KL LJE1 cells; assay type: cell-based, mouse
Description: Protein lysates in CST buffer (20 mM Tris pH 7.5, 150 mM NaCl, 1% Triton X-100, 50 mM NaF, 1 mM EDTA, 1 mM EGTA, 2.5 mM PyroPhosphate, 2 mM beta-glycerol-phosphate, 1 mM orthovanadate, 0.01 mM Calyculan A) with protease inhibitors were equilibrated for protein levels using a BCA protein assay kit (Pierce), resolved on 8% SDS-PAGE gels, and transferred to membrane. Membranes were blocked in milk, incubated o/n at 4C in diluted primary antibody, washed with TBS-T, incubated 1 hr in secondary antibody diluted in TBS-T plus milk, washed in TBS-T, and developed using SuperSignal ECL. Secondary antibodies: anti-rabbit (Millipore AP132P) and anti-mouse (Millipore AP124P). Nuclear fractions were isolated using a NE-PER nuclear and cytoplasmic extraction kit (Thermofisher) under manufacturers conditions.
p65-expressing DNA constructs RelA-Flag (22) (Addgene 20012) and GFP-RelA (21) (Addgene 23255) were transiently transfected into KL LJE1 cells using Lipofectamine 2000 (Thermo Fisher Scientific) according to the manufacturer's protocol. Cells were treated with drug as indicated 24 hours after transfection.

In the case of Nc1ccccc1NC(=O)c1ccc(CNC(=O)OCc2cccnc2)cc1 [entinostat], the “HRCG gene expression response in cells expressing p65 WT or p65 K310A” value (KL LJE1 cells; 3 days, 1 uM entinostat) is reported as “K310 only significantly altered the gene expression response of Cc120, Cxc15, and Cc15”, the “gene expression induction in NT versus p65 KO cells” value (KL LJE1 cells; 3 days, 1 uM entinostat or 5 uM BRD3308) is reported as “p65 facilitates maximal gene expression induction” and the “chemokine (SASP) gene expression” value (KL LJE1 cells; 72 hr, 2 uM entinostat or 10uM RGFP966) is reported as “robust induction of gene expression”. For the same molecule, the “impact of Trametinib on the FGFR1 resistance mechanism” value [1] was “reverses the impact of Trametinib on the FGFR1 resistance mechanism”, the “chemokine (SASP) gene expression” value (H460 cells) was “induced the expression of these genes” and the “impact of Trametinib on the FGFR1 resistance mechanism” value [2] was “reverses the impact of Trametinib on the FGFR1 resistance mechanism”. The “Cxc110 expression in vivo, lung tumors versus liver” value (KL NSCLC GEMM) was “induced upon entinostat treatment selectively in lung tumor cells”, the “HRCG expression in livers from the same mice” value (KL NSCLC GEMM) was “did not induce HRCG expression” and the “HRCG expression in lung tumors” value (KL NSCLC GEMM) was “potently induced HRCG expression”. The “Nr1d1 and Arntl gene expression in the liver” value (KL NSCLC GEMM) was “impacted Nr1d1 and Arntl gene expression in the liver”, the “acetylation of wildtype p65 at K310 (versus K310A mutant)” value (NF-kB/p65 protein; 5 hours, 1 uM entinostat or 5 uM BRD3308) was “induce acetylation of wildtype p65 at K310” and the “K310 acetylation on transfected p65” value (NF-kB/p65 protein; Flag-p65 or GFP-p65, 6 hr, 2 uM entinostat) was “increased K310 acetylation on p65”. For the same molecule, the “quantity of p65 protein in the nuclear fraction” value (NF-kB/p65 protein; Western blot, 6 hr, 2 uM entinostat, 10uM RGFP966, 0.5 uM TSA) was “increased the quantity of p65 protein in the nuclear fraction”.

— patent US20240398814A1, “KRAS INHIBITOR AND HDAC INHIBITOR COMBINATION FOR THE TREATMENT OF CANCER” (Northwestern University, priority 2023, published 2024)
